What follows are compounds tested against T1, human PTH1 receptor (Homo sapiens, UniProt Q03431) (assay: In vitro cAMP signal activity in HKRK-B7 cells (LLC-PK1 cells overexpressing the human PTH1 receptor)). Settings: 0.1 µM.
T1 sequence (Q03431 27-593): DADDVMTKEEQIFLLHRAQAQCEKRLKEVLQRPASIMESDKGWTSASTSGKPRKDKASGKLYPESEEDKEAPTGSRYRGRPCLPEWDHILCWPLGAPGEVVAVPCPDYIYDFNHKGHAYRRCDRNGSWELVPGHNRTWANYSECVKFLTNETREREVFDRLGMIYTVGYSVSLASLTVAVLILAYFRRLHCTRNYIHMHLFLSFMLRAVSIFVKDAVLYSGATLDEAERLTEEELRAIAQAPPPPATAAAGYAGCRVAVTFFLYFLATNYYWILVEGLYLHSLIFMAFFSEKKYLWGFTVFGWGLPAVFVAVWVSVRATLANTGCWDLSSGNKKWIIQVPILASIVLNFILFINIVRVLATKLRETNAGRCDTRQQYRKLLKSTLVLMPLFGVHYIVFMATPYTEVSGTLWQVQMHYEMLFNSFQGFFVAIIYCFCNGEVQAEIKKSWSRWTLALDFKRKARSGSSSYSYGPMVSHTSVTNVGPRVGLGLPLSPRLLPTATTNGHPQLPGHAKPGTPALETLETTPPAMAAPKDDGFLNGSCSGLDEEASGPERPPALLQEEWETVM
Format: cell-based

Row | SMILES | cAMP production activity (%)
1 | Cc1cc(N(C)C(N)=O)cc(C)c1CCS(=O)(=O)N1CCC2(CC1)N=C(C1CCC([Si](C)(C)C)CC1)NC2=O (stereo not shown) [Compound 1137, 1-(3,5-Dimethyl-4-{2-[4-oxo-2-(4-trimethylsilanyl-cyclohexyl)-1,3,8-triaza-spiro[4.5]dec-1-ene-8-sulfonyl]-ethyl}-phenyl)-1-methyl-urea] | 82%

Same assay, conditions: HKRK-B7 cells; compound at 1×10^−3 M; cAMP produced as percentage of that produced by hPTH(1-34) at 100 nM

Row | SMILES | cAMP production activity (%)
2 | Cc1cc(N(C)C(N)=O)cc(C)c1/C=C/[S@TB4](=O)(=O)N1CCC2(CC1)N=C(CCCCCCCCCCCF)NC2=O [Compound 1118, 1-(4-{(E)-2-[2-(11-fluoro-undecyl)-4-oxo-1,3,8-triaza-spiro[4.5]dec-1-ene-8-sulfonyl]-vinyl}-3,5-dimethyl-phenyl)-1-methyl-urea] | 79%
3 | C=CCCCCC1=NC2(CCN([S@TB17](=O)(=O)/C=C/c3c(C)cc(N(C)C(N)=O)cc3C)CC2)C(=O)N1 [Compound 1119, 1-{4-[(E)-2-(2-hex-5-enyl-4-oxo-1,3,8-triaza-spiro[4.5]dec-1-ene-8-sulfonyl)-vinyl]-3,5-dimethyl-phenyl}-1-methyl-urea] | 136%
4 | Cc1cc(N(C)C(N)=O)cc(C)c1/C=C/[S@TB3](=O)(=O)N1CCC2(CC1)N=C(CCCC/C=C/c1ccccc1)NC2=O [Compound 1120, 1-(3,5-dimethyl-4-{(E)-2-[4-oxo-2-((E)-6-phenyl-hex-5-enyl)-1,3,8-triaza-spiro[4.5]dec-1-ene-8-sulfonyl]-vinyl}-phenyl)-1-methyl-urea] | 124%
5 | Cc1cc(N(C)C(N)=O)cc(C)c1/C=C/[S@TB3](=O)(=O)N1CCC2(CC1)N=C(CCCCCCC/C=C/c1ccccc1)NC2=O [Compound 1121, 1-(3,5-dimethyl-4-{(E)-2-[4-oxo-2-((E)-9-phenyl-non-8-enyl)-1,3,8-triaza-spiro[4.5]dec-1-ene-8-sulfonyl]-vinyl}-phenyl)-1-methyl-urea] | 118%
6 | CCCSCCCCCC1=NC2(CCN([S@TB17](=O)(=O)/C=C/c3c(C)cc(N(C)C(N)=O)cc3C)CC2)C(=O)N1 [Compound 1122, 1-(3,5-dimethyl-4-{(E)-2-[4-oxo-2-(5-propylsulfanyl-pentyl)-1,3,8-triaza-spiro[4.5]dec-1-ene-8-sulfonyl]-vinyl}-phenyl)-1-methyl-urea] | 150%
7 | COCCCCCCCC1=NC2(CCN([S@TB18](=O)(=O)/C=C/c3c(C)cc(N(C)C(N)=O)cc3C)CC2)C(=O)N1 [Compound 1123, 1-(4-{(E)-2-[2-(7-methoxy-heptyl)-4-oxo-1,3,8-triaza-spiro[4.5]dec-1-ene-8-sulfonyl]-vinyl}-3,5-dimethyl-phenyl)-1-methyl-urea] | 122%
8 | CCCOCCCCCC1=NC2(CCN([S@TB18](=O)(=O)/C=C/c3c(C)cc(N(C)C(N)=O)cc3C)CC2)C(=O)N1 [Compound 1124, 1-(3,5-dimethyl-4-{(E)-2-[4-oxo-2-(5-propoxy-pentyl)-1,3,8-triaza-spiro[4.5]dec-1-ene-8-sulfonyl]-vinyl}-phenyl)-1-methyl-urea] | 119%
9 | Cc1cc(N(C)C(N)=O)cc(C)c1/C=C/[S@TB4](=O)(=O)N1CCC2(CC1)N=C(CCCCCCCCCCC(F)F)NC2=O [Compound 1125, 1-(4-{(E)-2-[2-(11,11-difluoro-undecyl)-4-oxo-1,3,8-triaza-spiro[4.5]dec-1-ene-8-sulfonyl]-vinyl}-3,5-dimethyl-phenyl)-1-methyl-urea] | 93%
10 | CCCCCCC(CCC)CCC1=NC2(CCN([S@TB18](=O)(=O)/C=C/c3c(C)cc(N(C)C(N)=O)cc3C)CC2)C(=O)N1 (stereo not shown) [Compound 1126, 1-(3,5-dimethyl-4-{(E)-2-[4-oxo-2-(3-propyl-nonyl)-1,3,8-triaza-spiro[4.5]dec-1-ene-8-sulfonyl]-vinyl}-phenyl)-1-methyl-urea] | 106%
11 | CCCc1cc2ccc(C3=NC4(CCN([S@TB18](=O)(=O)/C=C/c5c(C)cc(N(C)C(N)=O)cc5C)CC4)C(=O)N3)cc2o1 [Compound 1127, 1-(3,5-dimethyl-4-{(E)-2-[4-oxo-2-(2-propyl-benzofuran-6-yl)-1,3,8-triaza-spiro[4.5]dec-1-ene-8-sulfonyl]-vinyl}-phenyl)-1-methyl-urea] | 91%
12 | CCCCCc1ccc(C2=NC3(CCN([S@TB18](=O)(=O)/C=C/c4c(C)cc(N(C)C(N)=O)cc4C)CC3)C(=O)N2)cc1OC [Compound 1128, 1-(4-{(E)-2-[2-(3-methoxy-4-pentyl-phenyl)-4-oxo-1,3,8-triaza-spiro[4.5]dec-1-ene-8-sulfonyl]-vinyl}-3,5-dimethyl-phenyl)-1-methyl-urea] | 119%
13 | [2H]C([2H])([2H])C([2H])([2H])C1=CC[C@H](C2=NC3(CCN([S@TB18](=O)(=O)/C=C/c4c(C)cc(N(C)C(N)=O)cc4C)CC3)C(=O)N2)CC1 [Compound 1129, 1-(4-{(E)-2-[2-(4-[1,1,2,2,2-^2H5]ethyl-cyclohex-3-enyl)-4-oxo-1,3,8-triaza-spiro[4.5]dec-1-ene-8-sulfonyl]-vinyl}-3,5-dimethyl-phenyl)-1-methyl-urea] | 102%
14 | Cc1cc(N(C)C(N)=O)cc(C)c1/C=C/S(=O)(=O)N1CCC2(CC1)N=C(CCCCCCCCCCCC(=O)O)NC2=O [Compound 1131, 12-(8-{(E)-2-[2,6-Dimethyl-4-(1-methyl-ureido)-phenyl]-ethenesulfonyl}-4-oxo-1,3,8-triaza-spiro[4.5]dec-1-en-2-yl)-dodecanoic acid] | 96%
15 | CCOC(=O)CCCCCCCCCCCC1=NC2(CCN(S(=O)(=O)/C=C/c3c(C)cc(N(C)C(N)=O)cc3C)CC2)C(=O)N1 [Compound 1132, 12-(8-{(E)-2-[2,6-dimethyl-4-(1-methyl-ureido)-phenyl]-ethenesulfonyl}-4-oxo-1,3,8-triaza-spiro[4.5]dec-1-en-2-yl)-dodecanoic acid ethyl ester] | 80%
16 | Cc1cc(N(C)C(N)=O)cc(C)c1/C=C/S(=O)(=O)N1CCC2(CC1)N=C(CCCCCc1ccccc1)NC2=O.O=C(O)C(F)(F)F [Compound 1133, 1-(3,5-Dimethyl-4-{(E)-2-[4-oxo-2-(5-phenyl-pentyl)-1,3,8-triaza-spiro[4.5]dec-1-ene-8-sulfonyl]-vinyl}-phenyl)-1-methyl-urea trifluoroacetate] | 113%
17 | Cc1cc(N(C)C(N)=O)cc(C)c1/C=C\S(=O)(=O)N1CCC2(CC1)N=C(CCCCCc1ccccc1)NC2=O.O=C(O)C(F)(F)F [Compound 1134, 1-(3,5-dimethyl-4-{(Z)-2-[4-oxo-2-(5-phenyl-pentyl)-1,3,8-triaza-spiro[4.5]dec-1-ene-8-sulfonyl]-vinyl}-phenyl)-1-methyl-urea trifluoroacetate] | 50%
18 | Cc1cc(N(C)C(N)=O)cc(C)c1CCS(=O)(=O)N1CCC2(CC1)N=C(c1cccc(OCCCC(F)(F)C(F)(F)F)c1)NC2=O [Compound 1135, 1-[3,5-Dimethyl-4-(2-{4-oxo-2-[3-(4,4,5,5,5-pentafluoro-pentyloxy)-phenyl]-1,3,8-triaza-spiro[4.5]dec-1-ene-8-sulfonyl}-ethyl)-phenyl]-1-methyl-urea] | 84%
19 | CCCc1cccc(-c2cccc(C3=NC4(CCN(S(=O)(=O)CCc5c(C)cc(N(C)C(N)=O)cc5C)CC4)C(=O)N3)c2)c1 [Compound 1136, 1-(3,5-Dimethyl-4-{2-[4-oxo-2-(3′-propyl-biphenyl-3-yl)-1,3,8-triaza-spiro[4.5]dec-1-ene-8-sulfonyl]-ethyl}-phenyl)-1-methyl-urea] | 112%

Source: patent publication US9169254B2, “Spiroimidazolone derivative” (Chugai Seiyaku Kabushiki Kaisha, priority 2009, dated 2015)
